Common to all, as to test: Broth microdilution MIC in iron-depleted CAMHB (IDM)
Type in all cases: cell-based
On the technique in general: In broth dilution the organism is exposed to a series of concentrations in liquid medium.

Assay [1] concerns A. baumannii ATCC 17978. As to conditions: Acinetobacter baumannii, ATCC17978, read-out: Minimum Inhibitory Concentration, ATCC 17978. The protocol: (§1) Example IV: In Vitro Antibacterial Assays in Iron-Depleted Cation-Adjusted Mueller-Hinton Broth
(§2) To determine the ability of test compounds to inhibit the growth bacterial strains under conditions of iron-depletion, classic cell based broth microdilution minimum inhibitory concentration (MIC) assays were employed. MIC assays are performed according to CLSI methods except where otherwise noted (CLSI, 2018 and CLSI, 2019). The reference type strain E. coli ATCC 25922 was used to determine the ability of the PBP inhibitors to inhibit the growth of Enterobacteriaceae. Wild-type P. aeruginosa ATCC 27853, A. baumannii ATCC 17978 and A. baumannii ATCC 19606, along with the hyper-permeable P. aeruginosa ATCC 35151, an engineered efflux pump-compromised strain of P. aeruginosa (ΔmexAB-oprM), and an engineered efflux-pump compromised strain of A. baumannii IL123 (ABΔ3-ARAEcPore) were used to determine the ability of PBP inhibitors to penetrate the outer membrane of P. aeruginosa and A. baumannii and assess antibacterial activity against these important gram-negative organisms.
(§3) Briefly, cryo-preserved bacterial cultures of challenge strains are streaked for isolation on appropriate agar medium, in this case cation-adjusted Mueller Hinton agar. Following incubation to allow growth of the colonies, plates are sealed with parafilm and stored refrigerated for up to two weeks. For preparation of assay inoculum and to ensure low variability, at least 5 colonies are picked from the agar plates with an inoculating loop and aseptically transferred to a culture tube containing 3 mL of iron-depleted cation-adjusted Mueller Hinton broth (IDM)—see below for IDM preparation. The broth culture is grown for 3-5 hours at 37° C. with shaking at 200 rpm. Meanwhile, 2-fold serial dilutions of test compounds are conducted in a 96-well plate with a final volume of 75 μL per well at 2-fold the final desired concentration. After the dilution plates are set up the growing cultures are then diluted in a cuvette containing IDM and the optical density is measured at 600 nm. The inoculum is diluted such that 75 μL of this culture in IDM results in a starting bacterial concentration of 2-8×10^5 CFU/mL when added to the dilution plates. The plates are incubated for 16-20 hours for Enterobacteriaceae and Pseudomonas and 20-24 hours for Acinetobacter at 37° C. The MIC values are read visually as the lowest concentration well with no bacterial growth.
(§4) Method for Iron-Depleted Cation-Adjusted Mueller Hinton Broth (IDM) Preparation:
(§5) • Prepare cation-adjusted Mueller Hinton broth as per the manufacturer's recommendations and autoclave. • Add 100 g/L Chelex 100 resin, cover with foil and incubate with stirring for 2 hours • Remove Chelex 100 resin by filtration with 0.45 μm filter flask • Add the following back to the medium: • CaCl2 dihydrate: 82.5 mg/L • MgCl2 hexahydrate: 94.1 mg/L • ZnSO4: 10 μM • Adjust pH of medium to 7.3 with 5 N HCl • Sterilize using a 0.22 µm filter flask

Assay [2] deals with A. baumannii ATCC 19606. As to conditions: Acinetobacter baumannii, ATCC19606, read-out: Minimum Inhibitory Concentration, ATCC 19606. The protocol: as §1, §2, §3, §4, §5
Assay [3] relates to A. baumannii CDC-0033 producing NDM-1, and OXA-94. As to conditions: Acinetobacter baumannii, read-out: Minimum Inhibitory Concentration, CDC-0033. The protocol: as §1, §2, §3, §4, §5
Assay [4] has as its system A. baumannii CDC-0036 OXA-65, and OXA-24. As to conditions: Acinetobacter baumannii, read-out: Minimum Inhibitory Concentration, CDC-0036. The protocol:
as §1, §2, §3, §4, §5

The subject of assay [5] is A. baumannii CDC-0083 producing NDM-1, PER-7, OXA-23, and OXA-69. As to conditions: Acinetobacter baumannii, read-out: Minimum Inhibitory Concentration, CDC-0083. The protocol: as §1, §2, §3, §4, §5
In assay [6] the test system is P. aeruginosa (ΔmexAB-oprM). As to conditions: Pseudomonas aeruginosa, read-out: Minimum Inhibitory Concentration, P. aeruginosa ΔmexAB-OprM. The protocol: as §1, §2, §3, §4, §5
In assay [7] the test system is P. aeruginosa ATCC 27853. As to conditions: Pseudomonas aeruginosa, ATCC27853, read-out: Minimum Inhibitory Concentration, P. aeruginosa ATCC 27853. The protocol:
as §1, §2, §3, §4, §5

For assay [8], the system named is P. aeruginosa ATCC 35151. As to conditions: Pseudomonas aeruginosa, ATCC35151; iron-depleted MHB (IDM); hyper-permeable strain; read-out: Minimum Inhibitory Concentration, P. aeruginosa ATCC 35151. The protocol:
as §1, §2, §3, §4, §5

For assay [9], the system named is P. aeruginosa CDC-0054 producing VIM-4, OXA-50, and PAO. As to conditions: Pseudomonas aeruginosa, read-out: Minimum Inhibitory Concentration, P. aeruginosa CDC-0054. The protocol:
as §1, §2, §3, §4, §5

Assay [10] has as its system P. aeruginosa CDC-0090 producing KPC-5, OXA-50, and PAO. As to conditions: Pseudomonas aeruginosa, read-out: Minimum Inhibitory Concentration, P. aeruginosa CDC-0090. The protocol: as §1, §2, §3, §4, §5
For assay [11], the system named is P. aeruginosa CDC-0095 producing OXA-50, and PAO. As to conditions: Pseudomonas aeruginosa, read-out: Minimum Inhibitory Concentration, P. aeruginosa CDC-0095. The protocol: as §1, §2, §3, §4, §5
The subject of assay [12] is A. baumannii CDC-0045 producing TEM-1D, OXA-23, and OXA-69. As to conditions: Acinetobacter baumannii, read-out: Minimum Inhibitory Concentration, CDC-0045.
For assay [13], the system named is P. aeruginosa CDC-0110. As to conditions: Pseudomonas aeruginosa, CDC0110, read-out: Minimum Inhibitory Concentration, P. aeruginosa CDC-0110. The protocol: as §2, §3, §4, §5

Structures are written as SMILES. In brackets after ≈: the same amount, converted by molar mass.

On to `O=C(O)c1ccc(C(NC(=O)c2c(F)cc(O)c(O)c2Cl)C(=O)N[C@H]2Cc3ccc(F)c(C(=O)O)c3OB2O)cc1F` (stereo partly drawn) [Example 71, (3R)-3-(2-(4-carboxy-3-fluorophenyl)-2-(2-chloro-6-fluoro-3,4-dihydroxybenzamido)acetamido)-7-fluoro-2-hydroxy-3,4-dihydro-2H-benzo[e][1,2]oxaborinine-8-carboxylic acid], for which the MIC was 32 to 64 µg/mL (≈ 52.6 to 105 µM) in assay [1]; 32 to 64 µg/mL (≈ 52.6 to 105 µM) in [2]; 32 to 64 µg/mL (≈ 52.6 to 105 µM) in assay [3]; 32 to 64 µg/mL (≈ 52.6 to 105 µM) in assay [4]; 32 to 64 µg/mL (≈ 52.6 to 105 µM) in assay [5]; 0.25 µg/mL (≈ 0.411 µM) in [6]. The MIC is 0.5 to 1 µg/mL (≈ 0.821 to 1.64 µM) in assay [7]; 0.25 µg/mL (≈ 0.411 µM) in [8]; 0.5 to 1 µg/mL (≈ 0.821 to 1.64 µM) in [9]; 2 to 4 µg/mL (≈ 3.29 to 6.57 µM) in assay [10]; 0.5 to 1 µg/mL (≈ 0.821 to 1.64 µM) in [11]; 32 to 64 µg/mL (≈ 52.6 to 105 µM) in [12]. Moreover, in assay [13], the MIC was found to be 0.25 µg/mL (≈ 0.411 µM).

Take `CCN1CCN(C(=O)NC(C(=O)N[C@H]2Cc3cccc(C(=O)O)c3OB2O)c2cccc(NC(=O)c3ccc(O)c(O)c3Cl)c2)C(=O)C1=O` (stereo partly drawn) [Example 73, (3R)-3-(2-(3-(2-chloro-3,4-dihydroxybenzamido)phenyl)-2-(4-ethyl-2,3-dioxopiperazine-1-carboxamido)acetamido)-2-hydroxy-3,4-dihydro-2H-benzo[e][1,2]oxaborinine-8-carboxylic acid]: the MIC in [1] was 2 to 4 µg/mL (≈ 2.88 to 5.76 µM); in [2], 2 to 4 µg/mL (≈ 2.88 to 5.76 µM); in assay [3], 32 to 64 µg/mL (≈ 46.1 to 92.2 µM); in assay [4] it was 32 to 64 µg/mL (≈ 46.1 to 92.2 µM); in assay [5], 32 to 64 µg/mL (≈ 46.1 to 92.2 µM); in assay [6], 0.25 µg/mL (≈ 0.36 µM). Besides, the MIC in [7] is 8 to 16 µg/mL (≈ 11.5 to 23.1 µM); in [8], 0.25 µg/mL (≈ 0.36 µM); in assay [9], 2 to 4 µg/mL (≈ 2.88 to 5.76 µM); in assay [10], 2 to 4 µg/mL (≈ 2.88 to 5.76 µM); in assay [11], 2 to 4 µg/mL (≈ 2.88 to 5.76 µM); in assay [12], 32 to 64 µg/mL (≈ 46.1 to 92.2 µM). Further, the MIC in assay [13] lay in the range of 0.5 to 1 µg/mL (≈ 0.721 to 1.44 µM).

`CCN1CCN(C(=O)NC(C(=O)N[C@H]2Cc3cccc(C(=O)O)c3OB2O)c2ccc(O)c(NC(=O)c3ccc(O)c(O)c3Cl)c2)C(=O)C1=O` (stereo partly drawn) [Example 74, (3R)-3-(2-(3-(2-chloro-3,4-dihydroxybenzamido)-4-hydroxyphenyl)-2-(4-ethyl-2,3-dioxopiperazine-1-carboxamido)acetamido)-2-hydroxy-3,4-dihydro-2H-benzo[e][1,2]oxaborinine-8-carboxylic acid]: the MIC in [1] was 32 to 64 µg/mL (≈ 45.1 to 90.2 µM); in [2], 32 to 64 µg/mL (≈ 45.1 to 90.2 µM); in assay [3], 32 to 64 µg/mL (≈ 45.1 to 90.2 µM); in [4], 32 to 64 µg/mL (≈ 45.1 to 90.2 µM); in assay [5] it was 32 to 64 µg/mL (≈ 45.1 to 90.2 µM); in assay [6] it was 0.5 to 1 µg/mL (≈ 0.704 to 1.41 µM). The MIC is 8 to 16 µg/mL (≈ 11.3 to 22.5 µM) in assay [7]; 0.25 µg/mL (≈ 0.352 µM) in assay [8]; 0.5 to 1 µg/mL (≈ 0.704 to 1.41 µM) in assay [9]; 32 to 64 µg/mL (≈ 45.1 to 90.2 µM) in [10]; 0.5 to 1 µg/mL (≈ 0.704 to 1.41 µM) in [11]; 32 to 64 µg/mL (≈ 45.1 to 90.2 µM) in [12]. Also, in assay [13], the MIC lay in the range of 2 to 4 µg/mL (≈ 2.82 to 5.63 µM).

For the compound `CC(C)(C)[C@@H](NC(=O)N1CCN(CCNC(=O)c2c(F)cc(O)c(O)c2Cl)C(=O)C1=O)C(=O)N[C@H]1Cc2ccc(F)c(C(=O)O)c2OB1O` [Example 80, (R)-3-((R)-2-(4-(2-(2-chloro-6-fluoro-3,4-dihydroxybenzamido)ethyl)-2,3-dioxopiperazine-1-carboxamido)-3,3-dimethylbutanamido)-7-fluoro-2-hydroxy-3,4-dihydro-2H-benzo[e][1,2]oxaborinine-8-carboxylic acid], the MIC is 0.5 to 1 µg/mL (≈ 0.704 to 1.41 µM) in assay [1]; 2 to 4 µg/mL (≈ 2.82 to 5.63 µM) in assay [2]; 8 to 16 µg/mL (≈ 11.3 to 22.5 µM) in assay [3]; 8 to 16 µg/mL (≈ 11.3 to 22.5 µM) in [4]; 32 to 64 µg/mL (≈ 45.1 to 90.2 µM) in [5]; 0.25 µg/mL (≈ 0.352 µM) in assay [6]. For the same compound, the MIC in assay [7] is 2 to 4 µg/mL (≈ 2.82 to 5.63 µM); in assay [8], 0.25 µg/mL (≈ 0.352 µM); in assay [9], 2 to 4 µg/mL (≈ 2.82 to 5.63 µM); in assay [10] it was 2 to 4 µg/mL (≈ 2.82 to 5.63 µM); in [11], 2 to 4 µg/mL (≈ 2.82 to 5.63 µM); in assay [12], 8 to 16 µg/mL (≈ 11.3 to 22.5 µM). Besides, the MIC in [13] was in the range of 0.5 to 1 µg/mL (≈ 0.704 to 1.41 µM).

(Values after patent publication US20230114728A1 (Venatorx Pharmaceuticals, Inc., priority 2019, published 2023).)
